The subject of experiment [1] is HBL100 nontransformed breast cells. As to the kind of experiment: Uptake assay in HBL100 nontransformed breast cells. The experiment is classed as cell-based. As to conditions: average of two assays, variance 5-20%.
Experiment [2] deals with SKBR3 human breast tumor cells vs CV-1 normal epithelial cells. As to the kind of experiment: Washout assay: retention in an adherent cell assay, ratio of tumor (SKBR3)/normal (CV-1). It counts as cell-based. The note with it: for Retention, ratio of tumor/normal 99mTc activity: SKBR3/CV-1, mean of 4 slips per cell line. The procedure: (§1) Two cell lines are grown on cover slips: SKBR3 human breast tumor with known high membrane potential, and an epithelial cell line (CV1) of low membrane potential. Breast tumor cells (SKBR3) and normal epithelial cells (CV-1) are grown on cover slips (5×10^5 cells) and incubated for 60 min with 100 μCi of ^99m Tc-isonitrile. The slips are then incubated for 120 min in nonisotopic medium with repeated rinses. ^99m Tc activity remaining on the slips is determined at 0, 0.5, 1, 1.5, and 2 hr. Results are expressed as the ratio of tumor/normal ^99m Tc activity at each of the times. Values are the mean of 4 slips per cell line.
The washout assay characterizes the retention of compounds having gained access to the cell. A significant feature of this assay is that each cover slip was given a cell count at the end of the assay, and results were corrected for actual cell density. Because of high nonspecific binding to the coverslips, early times during washout are not meaningful, and so actual uptake and pharmacokinetics during the first phase of washout are not available. The results, however, are useful in predicting prolonged retention of compounds after blood levels have cleared.

Experiment [3] deals with A549 lung tumor cells. In words: Uptake assay in A549 lung tumor cells. The experiment is classed as cell-based. The note with it: average of two assays, variance 5-20%. As for the experimental part:
[Worded in the source for another cell line; this cell line is reported under the same test.] (§2) The cell uptake assay protocol was developed by Delmon-Moingeon et al.^10 Breast tumor cells (SKBR3) were incubated in media over a 2 hr time course with each test sample. This line has been identified as having high membrane potential and has been characterized for uptake of ^99m Tc-sestamibi. […] The first time point (10 min.) was used to compare compounds, as this was felt to represent the non-equilibrium kinetics of delivery experienced in vivo.

Experiment [4] deals with SKBR3 breast tumor cells. In words: Uptake assay in SKBR3 breast tumor cells. It counts as cell-based, human. The note with it: average of two assays, variance 5-20%. As for the experimental part: as §2
Experiment [5] relates to SKBR3 tumor cells. As to the kind of experiment: Tumor cell washout kinetics (t1/2). The experiment is classed as cell-based, human. The note with it: washout from SKBR3 cells; for 1/2 life SKBR3 Tumor Cells: second phase of biphasic kinetics. As for the experimental part: as §1
The half lives were also calculated for the washout of ^99m Tc-isonitriles from SKBR3 cells.

The test system of experiment [6] is heart. The note with it: Example 5 of Bergstein et al, U.S. Pat. No. 4,988,827; compared with ether isonitriles; cited from earlier work.
Experiment [7] deals with breast tumors in c-neu oncomice. As to the kind of experiment: Pairwise imaging in the c-neu oncomouse. The note with it: for Mean of Tumor Ratio Test/99mTc-sestamibi +/- Std Dev: paired imaging, c-neu oncomice, 6 animals (14 tumors), ** p < .01. It counts as in vivo, mouse. The source says:
The pairwise model was designed to directly compare the images of ^99m Tc-TBI with ^99m Tc-sestamibi. The same mouse was imaged at two separate times within 96 hr of each other with the test compound at one time and ^99m Tc-sestamibi at the other. The order of test and reference compound injected were random, but each study included at least an n=2 in each direction.
Female c-neu oncomice (18-30 g) and FVB wildtype mice were used in the pairwise studies. Mice with breast tumors between 1-15 mm were selected for imaging. Animals were anesthetized with sodium pentobarbital (IP) at a dose of 80 mg/kg. Tumors were measured with dial calipers and recorded on mouse templates. The tail was immersed in hot water for 1-2 min, wiped with alcohol, and injected via the tail vein (28 gauge insulin needle) with […] (0.15mL) of prepared ^99m Tc-TBI. The mouse was secured in a supine position on the dissection board with limbs and head extended to expose the chest area for optimal imaging of breast tumors. All image acquisitions were performed using a Picker Digital Dyna Gamma Camera, a Siemens MicroDelta terminal/MAXDELTA system, and a custom-made 1 mm pinhole collimator mounted on the gamma camera. The general static acquisition protocol was employed, using an acquisition matrix of 256×256 pixels, in word mode. The mouse was placed at a distance of 3 cm from the surface of the dissection board to the bottom of the collimator. The anterior view of the upper torso of the animal was acquired at each time point. Consecutive images were collected starting at 10 min post injection. Six 10 min images were collected at the 3 cm distance and one 10 min image was collected of the whole body at 15 cm to determine any tail vein activity. […] Total activity injected was determined by measuring the syringe before and after injection, then corrected for decay back to the time of injection. The pairwise images within each study were normalized for injected dose and regions of interest were taken over breast tumors and the heart. The mean ratio of ^99m Tc-TBI to ^99m Tc-sestamibi in the tumor was reported.

For experiment [8], the system named is breast tumors. The note with it: J. Nucl. Med. 1993, 34:149P; cited from earlier work.
Experiment [9] relates to breast adenocarcinomas in c-neu oncomice. In words: Dual label whole body autoradiography and histochemistry. It counts as in vivo, mouse. As to conditions: c-neu OncoMouse, whole body autoradiography. As for the experimental part: The test compound was given i.v. to a transgenic c-neu mouse (OncoMouse™). This mouse has been genetically constructed to spontaneously produce breast tumors. The tumors develop with the same cribriform pattern as observed in human tumors and have a similar pattern of blood supply.
Female c-neu oncomice bearing breast adenocarcinomas >0.5 cm in diameter were injected i.v. with 1-3 mCi of ^99m Tc-TBI and 5 μCi of C-14 2-deoxy-D-glucose. The mice were sacrificed at 30 min post injection by CO2 inhalation. The carcass was embedded and frozen in embedding medium and 20μ frozen sections were obtained in a cryotome. Autoradiograms of sections and standards were obtained on Kodak SB5 X-ray film. Adjacent sections (5μ) were obtained and stained with hemotoxylin and eosin (H&E). Images were digitized on a LOATS video-based computerized densitometer, and regions of intersect were obtained (% ID/g).

Some results are limits rather than exact numbers.

Data on two molecules can be found in US5961952A, “^99m Tc-tertiary-butyl isonitrile as breast tumor imaging agents” (DuPont Pharmaceuticals Company, priority 1997, dated 1999).

With “^99m Tc-tertiary-butyl isonitrile complex [TBI]”, the “Uptake (% of total)” value in experiment [1] (HBL100, 10 minutes) was 61.3%; in experiment [1] (HBL100, 20 minutes), 62.4%; in experiment [1] (HBL100, 60 minutes), 64.3%; in [3] (A549, 10 minutes), 49.8%; in [3] (A549, 20 minutes) it was 45.3%; in [3] (A549, 60 minutes), 43.1%. Besides, the “Uptake (% of total)” value in experiment [4] (SKBR3, 10 minutes) is given as 71.1%; in experiment [4] (SKBR3, 20 minutes) it was 68.1%; in experiment [4] (SKBR3, 60 minutes) it was 67%. For the same molecule, in experiment [2] (tumor cell culture, in words), the “retention in tumor cells during washout” value was “prolonged retention in tumor cells during washout”. For the same molecule, the “Retention, ratio of tumor/normal 99mTc activity” value was determined as 12 in experiment [2] (washout time 0 hr); 24 in [2] (washout time 0.5 hr); 31 in experiment [2] (washout time 1 hr); 35 in experiment [2] (washout time 1.5 hr); 37 in experiment [2] (washout time 2 hr). For the same molecule, the “increase in t1/2 (longer retention) compared with 99mTc-sestamibi” value in experiment [5] worked out at 6 fold. Besides, the “1/2 life SKBR3 Tumor Cells” value in experiment [5] came to 656.0. In addition, in [6], the “heart/liver and heart/lung uptake ratios” value is “low heart/liver and heart/lung uptake ratios”. Also, in experiment [7] (in words), the “tumor uptake and retention in vivo, relative to 99mTc-sestamibi” value is “significantly increased tumor uptake and retention in vivo”. Also, in experiment [7], the “Mean of Tumor Ratio Test/99mTc-sestamibi +/- Std Dev” value was 1.33 +/-0.43. Besides, the “increase in tumor retention/uptake compared with 99mTc-sestamibi” value in [7] (pairwise imaging, c-neu OncoMouse, p<0.01) is 133%.

For `[C-]#[N+]CC(C)(C)OC.[C-]#[N+]CC(C)(C)OC.[C-]#[N+]CC(C)(C)OC.[C-]#[N+]CC(C)(C)OC.[C-]#[N+]CC(C)(C)OC.[C-]#[N+]CC(C)(C)OC.[Tc]` [MIBI, reference compound], the “Uptake (% of total)” value in [1] (HBL100, 10 minutes) is 0.9%; in experiment [1] (HBL100, 20 minutes), 3.4%; in experiment [1] (HBL100, 60 minutes), 8.8%; in experiment [3] (A549, 10 minutes), 0.7%; in experiment [3] (A549, 20 minutes), 2.5%; in [3] (A549, 60 minutes), 7.3%. The “Uptake (% of total)” value in [4] (SKBR3, 10 minutes) stood at 1.8%; in [4] (SKBR3, 20 minutes), 4.5%; in experiment [4] (SKBR3, 60 minutes), 17.2%. Also, the “Retention, ratio of tumor/normal 99mTc activity” value is on record as 38 in experiment [2] (washout time 0 hr); 36 in [2] (washout time 0.5 hr); 34 in experiment [2] (washout time 1 hr); 29 in [2] (washout time 1.5 hr); 26 in [2] (washout time 2 hr). In experiment [8], the “sensitivity for imaging breast tumors” value is recorded as more than 90%. The “specificity for imaging breast tumors” value in experiment [8] is given as more than 70%. The “correlation between breast tumor retention and tissue viability” value in [9] is reported as “strong correlation”. The “1/2 life SKBR3 Tumor Cells” value in [5] was 120.5. The “Mean of Tumor Ratio Test/99mTc-sestamibi +/- Std Dev” value in experiment [7] was determined as 1.
